The values that follow come from ChEMBL document CHEMBL1143605, “A pharmacophore hypothesis for P-glycoprotein substrate recognition using GRIND-based 3D-QSAR” (2005).

In this assay the test system is MES-SA. Briefly: Inhibition of compound against MES-SA/DX5 cell line was determined using P-glycoprotein assay. The format is functional, Homo sapiens.
With `C=CC1CN2CCC1CC2C(=O)c1ccnc2ccc(OC)cc12` (stereo unspecified), the “log10 % Pgp inhibition vs cyclosporin A” value was found to be 1.26.
Consider `CC(=O)c1ccc2c(c1)N(CCCN(C)C)c1ccccc1S2` [ACEPROMAZINE], for which the “log10 % Pgp inhibition vs cyclosporin A” value was 0.8.
For `CCCCc1oc2ccccc2c1C(=O)c1cc(I)c(OCCN(CC)CC)c(I)c1` [AMIODARONE], the “log10 % Pgp inhibition vs cyclosporin A” value was 1.46.
To `CN1CCCC(n2nc(Cc3ccc(Cl)cc3)c3ccccc3c2=O)CC1` (stereo unspecified) [AZELASTINE] belongs 1.75.
Regarding `CCCCOc1cc(C(=O)OCCN(CC)CC)ccc1N` [BENOXINATE], the “log10 % Pgp inhibition vs cyclosporin A” value is 0.84.
Under `CC(C)COCC(CN(Cc1ccccc1)c1ccccc1)N1CCCC1` (stereo unspecified) [BEPRIDIL] stands 1.56.
On to `CN(C)CCOC(C)(c1ccccc1)c1ccc(Cl)cc1` (stereo unspecified) [CHLORPHENOXAMINE], for which the “log10 % Pgp inhibition vs cyclosporin A” value is 0.91.
To `CN(C)CC/C=C1/c2ccccc2Sc2ccc(Cl)cc21` [CHLORPROTHIXENE] belongs 1.27.
For the compound `CC(C)/N=c1\cc2n(-c3ccc(Cl)cc3)c3ccccc3nc-2cc1Nc1ccc(Cl)cc1` [CLOFAZIMINE], the “log10 % Pgp inhibition vs cyclosporin A” value came to 1.8.
For `COc1ccc([C@@H]2Sc3ccccc3N(CCN(C)C)C(=O)[C@@H]2OC(C)=O)cc1` [DILTIAZEM], the “log10 % Pgp inhibition vs cyclosporin A” value came out at 1.18.
With `CC(C)(C)c1ccc(C(=O)CCCN2CCC(OC(c3ccccc3)c3ccccc3)CC2)cc1` [EBASTINE], the “log10 % Pgp inhibition vs cyclosporin A” value is recorded as 1.76.
On to `CC[C@H]1CN2CCc3cc(OC)c(OC)cc3[C@@H]2C[C@@H]1C[C@H]1NCCc2cc(OC)c(OC)cc21` [EMETINE], for which the “log10 % Pgp inhibition vs cyclosporin A” value came to 0.88.
To `OCCN1CCN(CCCN2c3ccccc3Sc3ccc(C(F)(F)F)cc32)CC1` [FLUPHENAZINE] belongs 1.4.
On to `CN(C)C(=O)C(CCN1CCC(O)(c2ccc(Cl)cc2)CC1)(c1ccccc1)c1ccccc1` [LOPERAMIDE], for which the “log10 % Pgp inhibition vs cyclosporin A” value stood at 1.58.
For `C[C@H]1C[C@H]2[C@@H]3CCC4=CC(=O)C=C[C@]4(C)[C@H]3C(=O)C[C@]2(C)[C@@]1(O)C(=O)CO` [MEPREDNISONE], the “log10 % Pgp inhibition vs cyclosporin A” value turned out to be 0.86.
In the case of `CCc1nn(CCCN2CCN(c3cccc(Cl)c3)CC2)c(=O)n1CCOc1ccccc1` [NEFAZODONE], the “log10 % Pgp inhibition vs cyclosporin A” value is reported as 1.83.
For `CCN(CC)CC#CCOC(=O)C(O)(c1ccccc1)C1CCCCC1` (stereo unspecified) [OXYBUTYNIN], the “log10 % Pgp inhibition vs cyclosporin A” value was 1.12.
As to `Cc1nc2sccn2c(=O)c1CCN1CCC(=C(c2ccc(F)cc2)c2ccc(F)cc2)CC1` [RITANSERIN], the “log10 % Pgp inhibition vs cyclosporin A” value is 1.69.
Under `OCc1cc(C(O)CNCCCCCCOCCCCc2ccccc2)ccc1O` (stereo unspecified) [SALMETEROL] stands 0.83.
Regarding `CC(C)(C)c1ccc(C(O)CCCN2CCC(C(O)(c3ccccc3)c3ccccc3)CC2)cc1` (stereo unspecified) [TERFENADINE], the “log10 % Pgp inhibition vs cyclosporin A” value amounted to 1.65.
To `CCN(CC)C(=O)N[C@H]1C[C@@H]2c3cccc4[nH]cc(c34)C[C@H]2N(C)C1` [TERGURIDE] belongs 1; to `CCSc1ccc2c(c1)N(CCCN1CCN(C)CC1)c1ccccc1S2` [THIETHYLPERAZINE], 1.26; to `CSc1ccc2c(c1)N(CCC1CCCCN1C)c1ccccc1S2` (stereo unspecified) [THIORIDAZINE], 1.65.
`CN1CCN(CC/C=C2/c3ccccc3Sc3ccc(S(=O)(=O)N(C)C)cc32)CC1` [THIOTHIXENE]: the “log10 % Pgp inhibition vs cyclosporin A” value was 1.23.
`CCC(COC(=O)c1cc(OC)c(OC)c(OC)c1)(c1ccccc1)N(C)C` (stereo unspecified) [TRIMEBUTINE]: the “log10 % Pgp inhibition vs cyclosporin A” value came out at 1.75.
With `COc1ccc(CCN(C)CCCC(C#N)(c2ccc(OC)c(OC)c2)C(C)C)cc1OC` (stereo unspecified) [VERAPAMIL], the “log10 % Pgp inhibition vs cyclosporin A” value worked out at 1.63.
